These results are taken from ChEMBL document CHEMBL2429748, “DFT-based prediction of antifungal and insecticidal activities of perfluorophenyl antimony(III) and antimony(V) chlorides” (Med Chem Res, 2013).

What all share (format): functional, organism-based
Test [1] has as its system Aspergillus niger. The experiment in a line: Antifungal activity against Aspergillus niger assessed as growth inhibition at 100 ug/mL by agar diffusion method relative to control.
For test [2], the system named is Aspergillus flavus. The experiment in a line: Antifungal activity against Aspergillus flavus assessed as growth inhibition at 100 ug/mL by agar diffusion method relative to control. On the technique in general: In agar diffusion tests the substance spreads into inoculated agar from a disc or well.
In test [3] the test system is Aspergillus niger. The experiment in a line: Antifungal activity against Aspergillus niger assessed as growth inhibition at 50 ug/mL by agar diffusion method relative to control.
Test [4] has as its system Aspergillus flavus. As to the kind of experiment: Antifungal activity against Aspergillus flavus assessed as growth inhibition at 50 ug/mL by agar diffusion method relative to control.
Test [5] deals with Aspergillus niger. The experiment in a line: Antifungal activity against Aspergillus niger assessed as growth inhibition at 20 ug/mL by agar diffusion method relative to control.
The test system of test [6] is Aspergillus flavus. The experiment in a line: Antifungal activity against Aspergillus flavus assessed as growth inhibition at 20 ug/mL by agar diffusion method relative to control.
For test [7], the system named is Aspergillus niger. The experiment in a line: Antifungal activity against Aspergillus niger assessed as growth inhibition at 10 ug/mL by agar diffusion method relative to control.
The test system of test [8] is Aspergillus flavus. As to the kind of experiment: Antifungal activity against Aspergillus flavus assessed as growth inhibition at 10 ug/mL by agar diffusion method relative to control.

Take “chloro(ethyl)tris(pentafluorophenyl)-{5}-stibane”: the growth inhibition (GI) with Aspergillus niger [1] is 95%; in the test with Aspergillus flavus [2], 96.7%; with Aspergillus niger [3] it was 80%; in the test on Aspergillus flavus [4], 83.3%; with Aspergillus niger [5], 75%; in the test on Aspergillus flavus [6], 73.3%. Further, the growth inhibition (GI) was found to be 60% in the test on Aspergillus niger [7] and 66.6% in the test with Aspergillus flavus [8].

Consider chlorobis(perfluorophenyl)stibine, for which the growth inhibition (GI) in the test with Aspergillus niger [1] was 95%; in the test with Aspergillus flavus [2], 86.7%; in the test on Aspergillus niger [3], 70%; in the test with Aspergillus flavus [4], 76.6%; in the test on Aspergillus niger [5], 50%; with Aspergillus flavus [6] it was 66.6%. The figures for the growth inhibition (GI) in the test on Aspergillus niger [7] and with Aspergillus flavus [8] were 25% and 53.3%, respectively.

Turning to dichloro(perfluorophenyl)stibine, the growth inhibition (GI) came out at 90% in the test with Aspergillus niger [1]; 73.3% in the test on Aspergillus flavus [2]; 75% in the test with Aspergillus niger [3]; 66.6% with Aspergillus flavus [4]; 60% in the test with Aspergillus niger [5]; 60% in the test with Aspergillus flavus [6]. The growth inhibition (GI) was determined as 50% in the test with Aspergillus niger [7] and 53.3% with Aspergillus flavus [8].

For “dichlorotris(pentafluorophenyl)-{5}-stibane”, the growth inhibition (GI) worked out at 80% with Aspergillus niger [1]; 83.3% in the test with Aspergillus flavus [2]; 60% in the test on Aspergillus niger [3]; 73.3% in the test on Aspergillus flavus [4]; 50% in the test on Aspergillus niger [5]; 66.6% in the test with Aspergillus flavus [6]. Moreover, the growth inhibition (GI) in the test on Aspergillus niger [7] was determined as 30%; with Aspergillus flavus [8], 60%.

In the case of “tetrachloro(pentafluorophenyl)-{5}-stibane”, the growth inhibition (GI) in the test on Aspergillus niger [1] was 90%; with Aspergillus flavus [2], 93.3%; in the test on Aspergillus niger [3] it was 75%; with Aspergillus flavus [4], 86.7%; with Aspergillus niger [5], 40%; in the test on Aspergillus flavus [6], 80%. Moreover, the growth inhibition (GI) with Aspergillus niger [7] is 30%; with Aspergillus flavus [8], 73.3%.

Regarding “trichlorobis(pentafluorophenyl)-{5}-stibane”, the growth inhibition (GI) in the test on Aspergillus niger [1] was 75%; in the test on Aspergillus flavus [2], 96.7%; in the test with Aspergillus niger [3], 60%; in the test with Aspergillus flavus [4], 83.3%; in the test with Aspergillus niger [5], 40%; in the test on Aspergillus flavus [6] it was 76.6%. For the same substance, the growth inhibition (GI) was found to be 25% in the test on Aspergillus niger [7] and 60% in the test on Aspergillus flavus [8].

Take tris(perfluorophenyl)stibine: the growth inhibition (GI) came out at 90% in the test with Aspergillus niger [1]; 86.7% with Aspergillus flavus [2]; 75% in the test on Aspergillus niger [3]; 80% in the test on Aspergillus flavus [4]; 50% with Aspergillus niger [5]; 66.6% in the test on Aspergillus flavus [6]. Moreover, the growth inhibition (GI) in the test on Aspergillus niger [7] was found to be 50%; with Aspergillus flavus [8], 60%.
